Measured values reported in US20110281804A1, “PEPTIDIC AND PEPTIDOMIMETIC COMPOUNDS FOR REGULATING AUTOPHAGY” (FONDAZIONE SANTA LUCIA, priority 2008, published 2011).

Columns and labels:
[1] = tested on: AMBRA1-DIC interaction; assay: Co-immunoprecipitation of AMBRA1 with dynein intermediate chain (DIC) after microtubule disruption; type: cell-based, human; conditions: drugs which interfere with microtubule polymerisation
Description: To this end, coimmunoprecipitation experiments were performed in 2F cells, using an antibody specific for the dynein intermediate chain (DIC). It was observed that, under control conditions, AMBRA1 is associated with DIC and is therefore part of the wider dynein machinery (FIG. 2b, third lane). […] DIC immunodepletion experiments confirmed that AMBRA1 is still associated with DLC1 after being released from DIC. On the other hand, only a fraction of DLC1 interacts with AMBRA1, since most DLC1 is still present in the complex, where it plays alternative functions (FIG. 2b).
It was then checked whether disruption of the microtubule network could interfere with the dynamics of AMBRA1 binding to the dynein motor complex.
In immunoprecipitation experiments, cells or tissues were lysed in HEMG buffer (25 mM Hepes pH 8.0, 100 mM NaCl, 25 mM MgCl2, 0.5% Triton X-100, 0.1 mM EDTA 10% glycerol) plus protease and phosphatase inhibitors (Protease inhibitor cocktail plus 1mM Sodium Fluoride, 1 mM Sodium orthovanadate, 1 mM Sodium molibdate; Sigma-Aldrich). […]

[2] = tested on: HEK293 cells; assay: Autophagy induction by peptides in HEK293 cells, Western blot of LC3 and p62; type: cell-based; conditions: 1-16 hours; for level of autophagy induced by the treatment: peptide 100-200 μM in culture medium, Western blot of LC3 and p62
Source text: In order to deregulate the AMBRA1-DLC1 interaction, three peptides (SEQ ID NO:1, SEQ ID NO:2 and SEQ ID NO:3) were selected for their likelihood to maintain the α-helix structure. SEQ ID NO:3 and SEQ ID NO:1 presented substitutions of the neutral residues of leucine into lysine, to increase the charge of the peptides (FIG. 5). The three peptides were synthesized in vitro with the addition of 11 arginine residues at the N-terminus and they were covalently conjugated with the FITC fluorochrome. The arginine residues allow an efficient incorporation of the peptides within the cells, whereas the FITC allows visualization of the peptides inside the cells and permit to monitor their stability upon time. Increasing doses of the peptides, respectively SEQ ID NO:3, SEQ ID NO:1 and SEQ ID NO:2 (100-200 μM) were added to the culture medium of HEK293 cells for increasing time (1-16 hours). The level of autophagy induced by the treatment was monitored by Western blot analyses of known markers of this process, such as LC3 and p62. […] Although limited, this effect is somewhat more desirable than stronger effects, because it avoids massive autophagy that would likely results in cell death in vivo.
Proteins were separated on NuPAGE Bis-Tris gel (Invitrogen) and electroblotted onto nitrocellulose (Protran, Schleicher & Schuell) or PVDF (Millipore) membranes. Blots were incubated with primary antibodies in 5% non-fat dry milk in TBS plus 0,1% Tween20 overnight at 4° C. Detection was achieved using horseradish peroxidase-conjugate secondary antibody (Biorad) and visualised with ECL plus (Amersham Bioscience).

[3] = molecular target: MyD88 (Homo sapiens, UniProt Q99836); conditions: Loiarro et al., J. Leukocyte Biology 2007; cited from earlier work
MyD88, sequence (Q99836 whole entry, species assumed): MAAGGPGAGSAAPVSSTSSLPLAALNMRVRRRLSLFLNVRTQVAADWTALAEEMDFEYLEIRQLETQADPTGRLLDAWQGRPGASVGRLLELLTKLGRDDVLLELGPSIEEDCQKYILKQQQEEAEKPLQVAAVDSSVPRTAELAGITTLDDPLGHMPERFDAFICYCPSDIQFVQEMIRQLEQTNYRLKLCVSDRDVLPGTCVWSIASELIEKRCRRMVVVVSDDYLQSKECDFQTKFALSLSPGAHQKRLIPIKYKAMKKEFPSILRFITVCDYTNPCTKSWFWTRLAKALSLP

[4] = molecular target: AMBRA1 full length (human, wild type) (UniProt Q9C0C7)
AMBRA1 full length (human, wild type), sequence (Q9C0C7 other isoform, or with tags, fused parts or gaps): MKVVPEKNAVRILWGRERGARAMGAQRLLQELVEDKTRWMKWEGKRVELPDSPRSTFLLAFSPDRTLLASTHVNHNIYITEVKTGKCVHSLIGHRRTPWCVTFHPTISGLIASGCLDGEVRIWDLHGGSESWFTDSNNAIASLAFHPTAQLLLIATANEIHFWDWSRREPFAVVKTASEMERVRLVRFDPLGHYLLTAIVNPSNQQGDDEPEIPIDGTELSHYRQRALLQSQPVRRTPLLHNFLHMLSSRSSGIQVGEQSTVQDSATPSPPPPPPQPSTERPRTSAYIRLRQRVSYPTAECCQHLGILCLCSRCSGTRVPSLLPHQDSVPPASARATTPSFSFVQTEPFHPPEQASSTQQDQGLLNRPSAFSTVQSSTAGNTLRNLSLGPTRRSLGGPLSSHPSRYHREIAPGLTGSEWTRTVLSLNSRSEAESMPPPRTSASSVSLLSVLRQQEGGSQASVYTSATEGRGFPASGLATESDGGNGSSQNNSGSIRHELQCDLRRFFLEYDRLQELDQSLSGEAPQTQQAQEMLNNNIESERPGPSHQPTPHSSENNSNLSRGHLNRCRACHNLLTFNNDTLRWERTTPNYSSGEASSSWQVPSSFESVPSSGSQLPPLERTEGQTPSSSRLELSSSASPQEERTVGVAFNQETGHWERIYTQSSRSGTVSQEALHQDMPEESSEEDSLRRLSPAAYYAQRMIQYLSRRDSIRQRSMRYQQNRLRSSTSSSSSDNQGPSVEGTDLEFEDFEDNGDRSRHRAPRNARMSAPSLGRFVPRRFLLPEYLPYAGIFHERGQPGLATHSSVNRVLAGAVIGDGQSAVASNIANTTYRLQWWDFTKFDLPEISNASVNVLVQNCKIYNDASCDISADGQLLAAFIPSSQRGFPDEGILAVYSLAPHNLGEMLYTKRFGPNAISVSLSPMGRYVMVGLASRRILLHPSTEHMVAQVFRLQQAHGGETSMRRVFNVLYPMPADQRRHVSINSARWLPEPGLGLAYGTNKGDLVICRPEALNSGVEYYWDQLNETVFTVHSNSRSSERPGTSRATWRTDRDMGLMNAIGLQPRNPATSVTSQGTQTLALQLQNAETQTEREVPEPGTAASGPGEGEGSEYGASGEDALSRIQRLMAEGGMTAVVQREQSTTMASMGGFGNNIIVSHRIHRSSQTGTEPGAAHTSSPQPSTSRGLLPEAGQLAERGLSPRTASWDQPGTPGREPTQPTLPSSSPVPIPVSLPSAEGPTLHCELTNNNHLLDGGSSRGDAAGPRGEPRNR

Molecule	AMBRA1-DIC interaction [1]	level of autophagy induced by the treatment [2]	further results
COC(=O)Nc1nc2ccc(C(=O)c3cccs3)cc2[nH]1 [Nocodazole]	did not impair	–	–
SEQ ID NO:1: Peptide with TQT triplet followed by α-helix residues; leucine residues substituted into lysine to increase charge (SQGTQTKAKQK; listed as Homo sapiens)	–	induced an increase in autophagy	p62 protein levels ([2]; 100-200 μM, Western blot (FIG. 6A)): decrease; shorter isoform of LC3 ([2]; 100-200 μM, Western blot (data not shown)): increase
SEQ ID NO:3: Peptide selected to maintain α-helix structure; leucine residues substituted into lysine to increase charge (TQTKAKQKQNAETQTER; listed as Homo sapiens)	–	not so effective at the doses used	–
CC[C@]1(O)C[C@@H]2CN(CCc3c([nH]c4ccccc34)[C@@](C(=O)OC)(c3cc4c(cc3OC)N(C)[C@H]3[C@@](O)(C(=O)OC)[C@H](OC(C)=O)[C@]5(CC)C=CCN6CC[C@]43[C@@H]65)C2)C1 [Vinblastine]	did not impair	–	–
NC(=O)[C@H]1CCS[C@@H]2C[C@]3(CCCN3C(=O)Cc3ccc(NC(=O)COc4ccc(Cl)cc4Cl)cc3)C(=O)N12 [ST2825]	–	–	activity and specificity of inhibition compared with the original MyD88 inhibitory peptide [3]: maintained the same activity and specificity of inhibition
ULK1 wild type, myc-tagged (immunopurified complex)	–	–	in vitro kinase assay (32P labelling, autoradiography) [4]: AMBRA1 is phosphorylated by an ULK1 immunopurified complex
